Experiment [1] deals with NCI60 tumor cell line panel. As to the kind of experiment: NCI60 five-dose screen, mean over panel. The experiment is classed as cell-based, human. To be noted: five dose. From the text: (§1) The concentration−response curve generated enables the determination of three criteria, GI50 (drug concentration at which 50% of cell growth is inhibited), total growth inhibition (TGI) and LC50 (drug concentration at which 50% of tumor cells are killed) which can be used to compare effectiveness against any compound tested in the screen since its inception.
(§2) S2.1 NCI Screening Assay Experimental details
(§3) NCI Screening Assay Experimental: Cancer cell growth assays (NCI60 screening) 5,6 One-dose study: Tested compounds were initially solubilised in DMSO, diluted into RPMI 1640 and 5% fetal bovine serum/L-glutamine, and added to 96-well plates containing cell lines previously cultured for 24 h. After 48 h incubation, the media were removed, and the cells were fixed and stained with sulforhodamine B to determine overall percent growth/ total protein content. Unbound dye was removed with five washes of 1% acetic acid, and the plates were allowed to air dry. The dye was then resolubilised in Tris buffer, and the colorimetric absorbance was measured (515 nm). Growth inhibition was measured relative to the response generated from proliferating cells cultured under identical conditions for 48 h. Data from one-dose experiments pertains to the percentage growth at […]
(§4) Five-dose study: Serial 5 × 10-fold dilution from an initial DMSO stock solution was performed, prior to incubation at each individual concentration (10 nM, 100 nM, 1 μM, 10 μM and 100 μM). Using seven absorbance measurements (time zero (Tz), control growth (C), and test growth in the presence of drug at the five concentration levels (Ti)), the percentage growth was calculated at each of the drug concentrations levels. Percentage growth inhibition was calculated as: [(Ti − Tz)/(C − Tz)] × 100 for concentrations for which Ti ≥ Tz, [(Ti − Tz)/Tz] × 100 for concentrations for which Ti < Tz. Three dose response parameters were calculated for each experimental agent. […]
(§5) was calculated from [(Ti − Tz)/(C − Tz)] × 100 = 50, which is the drug concentration resulting in a 50% reduction in the net protein increase (as measured by sulforhodamine B staining) in control cells during the drug incubation. The drug concentration resulting in total growth inhibition (TGI) was calculated from Ti = Tz. The LC50 (concentration of drug resulting in a 50% reduction in the measured protein at the end of the drug treatment as compared to that at the beginning) indicating a net loss of cells following treatment was calculated from [(Ti − Tz)/Tz] × 100 = −50. Values were calculated for each of these three parameters if the level of activity was reached; however, if the effect was not reached or was exceeded, the value for that parameter was expressed as greater or less than the maximum or minimum concentration tested.

Experiment [2] has as its system NCI-ADR/RES. As to the kind of experiment: NCI60 five-dose GI50. The experiment is classed as cell-based. To be noted: Homo sapiens, MDR ovarian.
From the text: as §1, §2, §3, §4, §5

Experiment [3] has as its system UACC-62. The experiment is described as follows: NCI60 five-dose GI50. The experiment is classed as cell-based. Conditions: Homo sapiens, melanoma.
From the text: as §1, §2, §3, §4, §5

Experiment [4] relates to OVCAR-3. As to the kind of experiment: NCI60 five-dose GI50. The experiment is classed as cell-based. Conditions: Homo sapiens, ovarian.
From the text: as §1, §2, §3, §4, §5

In experiment [5] the test system is MCF-7. As to the kind of experiment: NCI60 five-dose GI50. The experiment is classed as cell-based. To be noted: Homo sapiens, MCF7, breast.
From the text: as §1, §2, §3, §4, §5

In experiment [6] the test system is K-562. As to the kind of experiment: NCI60 five-dose GI50. The experiment is classed as cell-based. To be noted: Homo sapiens, K562, five dose.
From the text: as §1, §2, §3, §4, §5

The test system of experiment [7] is COLO-205. As to the kind of experiment: NCI60 five-dose GI50. The experiment is classed as cell-based. Conditions: Homo sapiens, colon.
From the text: as §1, §2, §3, §4, §5

The test system of experiment [8] is LOX-IMVI. The experiment is described as follows: NCI60 five-dose GI50. The class given is cell-based. Conditions: Homo sapiens, melanoma.
From the text: as §1, §2, §3, §4, §5

Experiment [9] relates to NCI60 tumor cell line panel. As to the kind of experiment: NCI60 one-dose screen (10 μM), mean growth. The class given is cell-based, human. Conditions: for activity at 10 µM: Homo sapiens; for activity at 10 µM / mean growth (%, 10 μM): 48 h, one dose 10 μM, mean cell growth of 60 tumor cell lines. How it is done:
as §2
as §3, with “h.” for “h. Data from one-dose experiments pertains to the percentage growth at”

In experiment [10] the test system is OVCAR-8. As to the kind of experiment: NCI60 five-dose GI50. The class given is cell-based. To be noted: Homo sapiens, ovarian.
From the text: as §1, §2
as §3, with “nm).” for “nm). Growth inhibition was measured relative to the response generated from proliferating cells cultured under identical conditions for 48 h. Data from one-dose experiments pertains to the percentage growth at”
as §4, §5

Setting [11] is: Homo sapiens, across 57-60 cell lines (number given per compound), read-out: Mean of GI50 as Log 10 Concentration (SD) (converted).
[12] abbreviates: mean over 52 human tumor cell lines common to all analogues, read-out: mean GI50.

SMILES strings stand for the structures. Where two headings read alike, the source gives them in different places.

On to `COC(=O)c1c2c(c(C)[n+]([O-])c1C)C(=O)C(NCc1ccc(OC)cc1)=CC2=O` [Compound 6], for which the GI50 in experiment [1] (setting [11]) is 2040 nM; in [1] (setting [12]) it was 2120 nM; in [2] it was 2420 nM; in experiment [3], 1720 nM; in experiment [4], 315 nM; in experiment [5], 1410 nM. The GI50 stood at 2670 nM in experiment [6] (leukemia), 839 nM in experiment [7], 2410 nM in experiment [8] and 2780 nM in experiment [10]. Further, the activity at 10 µM in experiment [9] came to 19%.

As for `COC(=O)c1c2c(c(C)[n+]([O-])c1C)C(=O)C=C(NCc1ccc(OC)cc1)C2=O` [Compound 7], the GI50 in experiment [1] (setting [11]) was 1530 nM; in experiment [1] (setting [12]), 900 nM; in experiment [2], 419 nM; in experiment [3], 374 nM; in experiment [4] it was 284 nM; in experiment [5], 300 nM. In addition, the GI50 in [6] (leukemia) stood at 491 nM; in experiment [7] it was 325 nM; in experiment [8], 408 nM; in [10], 452 nM. The activity at 10 µM in [9] was -34%. Besides, the “mean growth (%, 10 μM)” value in [9] is listed as -34%.

Turning to `COC(=O)c1c2c(c(C)[n+]([O-])c1C)C(=O)C=C(NCc1ccc(F)c(F)c1)C2=O` [Compound 17], the GI50 in experiment [1] (setting [11]) is 421 nM; in experiment [1] (setting [12]), 580 nM; in experiment [2], 345 nM; in experiment [3], 68 nM; in experiment [4], 258 nM; in experiment [5], 290 nM. In addition, the GI50 in experiment [6] was below 150 nM; in experiment [6] (leukemia) it was 113 nM; in experiment [7] it was 260 nM; in [8], 64 nM; in [10], 299 nM. In addition, in experiment [9], the activity at 10 µM was -49%. In addition, in experiment [9], the “mean growth (%, 10 μM)” value was -49%.

On to `COC(=O)c1c2c(c(C)[n+]([O-])c1C)C(=O)C(NCc1cccc(Cl)c1)=CC2=O` [Compound 12], for which the GI50 in [1] (setting [11]) was 1340 nM; in [1] (setting [12]), 1480 nM; in experiment [2], 1640 nM; in experiment [3] it was 1240 nM; in [4], 322 nM; in [5], 1100 nM. Moreover, the GI50 in [6] (leukemia) turned out to be 2170 nM; in [7], 388 nM; in experiment [8], 1760 nM; in [10], 1520 nM. Moreover, the activity at 10 µM in experiment [9] amounted to 12%.

As for `COC(=O)c1c2c(c(C)[n+]([O-])c1C)C(=O)C(NCc1cccc(OC)c1)=CC2=O` [Compound 8], the GI50 is 2210 nM in experiment [1] (setting [11]); 2290 nM in experiment [1] (setting [12]); 2360 nM in experiment [2]; 1700 nM in experiment [3]; 512 nM in experiment [4]; 1650 nM in [5]. The GI50 in [6] (leukemia) stood at 2980 nM; in experiment [7], 1100 nM; in experiment [8], 2360 nM; in experiment [10], 2520 nM. Besides, in experiment [9], the activity at 10 µM worked out at 23%.

Turning to `COC(=O)c1c2c(c(C)[n+]([O-])c1C)C(=O)C=C(NCc1ccc(Br)cc1)C2=O` [Compound 15], the GI50 was 515 nM in experiment [1] (setting [11]); 780 nM in experiment [1] (setting [12]); 439 nM in [2]; 46 nM in experiment [3]; 273 nM in [4]; 289 nM in [5]. Besides, the GI50 in [6] was below 150 nM; in experiment [6] (leukemia) it was 47 nM; in experiment [7], 313 nM; in experiment [8], 84 nM; in experiment [10] it was 465 nM. In addition, in [9], the activity at 10 µM is -50%. Moreover, in experiment [9], the “mean growth (%, 10 μM)” value is listed as -50%.

`COC(=O)c1c2c(c(C)[n+]([O-])c1C)C(=O)C(NCc1ccc(Br)cc1)=CC2=O` [Compound 14]: the GI50 in experiment [1] (setting [11]) is 1640 nM; in [1] (setting [12]), 1800 nM; in experiment [2] it was 1970 nM; in experiment [3] it was 1170 nM; in experiment [4], 301 nM; in experiment [5] it was 1330 nM. Further, the GI50 worked out at 2380 nM in experiment [6] (leukemia), 659 nM in experiment [7], 1670 nM in [8] and 1830 nM in experiment [10]. Further, in experiment [9], the activity at 10 µM was 18%.

For the compound `COC(=O)c1c2c(c(C)[n+]([O-])c1C)C(=O)C=C(NCc1cccc(Cl)c1)C2=O` [Compound 13], the GI50 is 405 nM in [1] (setting [11]); 620 nM in experiment [1] (setting [12]); 352 nM in experiment [2]; 144 nM in [3]; 243 nM in experiment [4]; 270 nM in experiment [5]. The GI50 is below 150 nM in experiment [6]; 109 nM in experiment [6] (leukemia); 263 nM in experiment [7]; 94 nM in [8]; 297 nM in [10]. Also, in experiment [9], the activity at 10 µM is -42%. Besides, the “mean growth (%, 10 μM)” value in experiment [9] is -42%.

For the compound `COC(=O)c1c2c(c(C)[n+]([O-])c1C)C(=O)C(NCc1ccc(F)c(Cl)c1)=CC2=O` [Compound 18], the GI50 in experiment [1] (setting [11]) was 1800 nM; in [1] (setting [12]), 1510 nM; in experiment [2], 2080 nM; in [3], 1380 nM; in experiment [4], 306 nM; in experiment [5] it was 1320 nM. In addition, the GI50 in experiment [6] (leukemia) was determined as 2670 nM; in experiment [7] it was 588 nM; in experiment [8] it was 2340 nM; in experiment [10], 2380 nM. Besides, the activity at 10 µM in experiment [9] came out at 4%.

Turning to `COC(=O)c1c2c(c(C)[n+]([O-])c1C)C(=O)C=C(NCc1cccc(OC)c1)C2=O` [Compound 9], the GI50 in [1] (setting [11]) was 607 nM; in experiment [1] (setting [12]), 740 nM; in [2], 441 nM; in experiment [3], 306 nM; in experiment [4] it was 259 nM; in [5], 286 nM. In addition, the GI50 amounted to 416 nM in experiment [6] (leukemia), 252 nM in [7], 302 nM in experiment [8] and 339 nM in experiment [10]. Also, the activity at 10 µM in experiment [9] was -52%. For the same compound, the “mean growth (%, 10 μM)” value in [9] is -52%.

For the compound `COC(=O)c1c2c(c(C)[n+]([O-])c1C)C(=O)C=C(NCc1ccc(Cl)cc1)C2=O` [Compound 11], the GI50 in [1] (setting [11]) is 412 nM; in experiment [1] (setting [12]), 550 nM; in experiment [2], 267 nM; in experiment [3] it was 55 nM; in experiment [4], 208 nM; in [5], 267 nM. In addition, the GI50 is below 150 nM in experiment [6]; 58 nM in experiment [6] (leukemia); 238 nM in experiment [7]; 39 nM in experiment [8]; 292 nM in experiment [10]. The activity at 10 µM in experiment [9] is -32%. Moreover, the “mean growth (%, 10 μM)” value in experiment [9] was -32%.

As to `COC(=O)c1c2c(c(C)[n+]([O-])c1C)C(=O)C(NCc1ccc(Cl)cc1)=CC2=O` [Compound 10], the one-dose screen outcome in experiment [9] (10 μM) is given as “did not achieve sufficient growth inhibition”. Also, the activity at 10 µM in experiment [9] turned out to be 57%.

The record behind these values is publication PMC11345829, “Discovery of Potent Isoquinolinequinone N-Oxides to Overcome Cancer Multidrug Resistance” (Journal of Medicinal Chemistry, 2024).
